Results reported in US20230038138A1, “COMBINATION THERAPY FOR TREATING CANCER” (ASTRAZENECA AB, priority 2020, published 2023).

Test system: NIH-OVCAR3 human ovarian tumor cells
Experiment: Efficacy in OVCAR3 xenograft model (tumor volume)
Format: in vivo, female CB.17 SCID mice
Settings: dosed for 42 days
Source text: OVCAR3: NIH-OVCAR3 human ovarian tumor cells (15×10^6/mouse) were implanted subcutaneously in female CB.17 SCID mice. The mice were randomized into groups of eight for efficacy, based on tumor volume and treated with either vehicle (0.5% HPMC/0.1% Tween 80), AZD5153; olaparib or the combination of AZD5153 and olaparib approximately 10 days after implantation. AZD5153 was formulated in 0.5% HPMC/0.1% Tween 80 and dosed orally for 42 days. Olaparib was formulated in 50% of 30% w/v HP-β-CD (Kleptose) in purified water and also dosed for 42 days. For the combination groups, olaparib was dosed daily for 42 days and AZD5153 was dosed either daily, for 7 days on and 14 days off for 2 cycles or 14 days on and 7 days off for 2 cycles. Tumor length and width was measured by caliper and tumor volume was calculated using the formula (length×width^2)*π/6 then reported as tumor volume.

SMILES	efficacy (tumor volume) as monotherapy
COc1nnc2ccc(N3CCC(c4ccc(OCCN5CCN(C)C(=O)[C@H]5C)cc4)CC3)nn12 [AZD5153, (3R)-4-[2-[4-[1-(3-Methoxy-[1,2,4]triazolo[4,3-b]pyridazin-6-yl)-4-piperidyl]phenoxy]ethyl]-1,3-dimethyl-piperazin-2-one]	modestly efficacious
O=C(c1cc(Cc2n[nH]c(=O)c3ccccc23)ccc1F)N1CCN(C(=O)C2CC2)CC1 [olaparib, 4-[(3-{[4-(cyclopropylcarbonyl)piperazin-1-yl]carbonyl}-4-fluorophenyl)methyl]phthalazin-1(2H)-one]	modestly efficacious
